The record followed here is patent publication US20150191462A1, “PYRROLIDINE DERIVATIVES AND THEIR USE AS COMPLEMENT PATHWAY MODULATORS” (priority 2012, published 2015).

The target in the assay is Recombinant human factor D (Homo sapiens, UniProt P00746). Put plainly: Human Complement Factor D Assay: Method 1. Type of assay: biochemical. The settings on record: Factor D inhibition, 10 nM factor D, Z-Lys-thiobenzyl substrate, fluorescence readout. How it is done:
Human Complement Factor D Assay: Method 1 Recombinant human factor D (expressed in E. coli and purified using standard methods) at 10 nM concentration is incubated with test compound at various concentrations for 1 hour at room temperature in 0.1 M Hepes buffer, pH 7.5, containing 1 mM MgCl2, 1 M NaCl and 0.05% CHAPS. […] The increase in fluorescence is recorded at excitation of 485 nm and emission at 535 nm in a microplate spectrofluorimeter. IC50 values are calculated from percentage of inhibition of complement factor D-activity as a function of test compound concentration.

SMILES strings stand for the structures.

Recombinant human factor D, sequence (P00746 26-253): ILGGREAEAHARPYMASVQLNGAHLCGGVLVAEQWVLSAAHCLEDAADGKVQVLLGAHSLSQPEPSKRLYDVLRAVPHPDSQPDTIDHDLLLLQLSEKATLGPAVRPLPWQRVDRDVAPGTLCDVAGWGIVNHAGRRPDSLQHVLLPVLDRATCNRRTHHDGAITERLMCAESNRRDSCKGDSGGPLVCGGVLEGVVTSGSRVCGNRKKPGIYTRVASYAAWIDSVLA

For the compound `NC(=O)c1nn(CC(=O)N2[C@@H]3C[C@@H]3C[C@H]2C(=O)Nc2cncc(Br)n2)c2ncccc12` [Example 1, 1-{2-[(1R,3S,5R)-3-(6-Bromo-pyrazin-2-ylcarbamoyl)-2-aza-bicyclo[3.1.0]hex-2-yl]-2-oxo-ethyl}-1H-pyrazolo[3,4-b]pyridine-3-carboxylic acid amide], the IC50 was found to be 19 nM. With `CCc1cc2c(C(N)=O)nn(CC(=O)N3[C@@H]4C[C@@H]4C[C@H]3C(=O)Nc3cccc(C(F)(F)F)n3)c2cn1` [Example 2, 5-Ethyl-1-{2-oxo-2-[(1R,3S,5R)-3-(6-trifluoromethyl-pyridin-2-ylcarbamoyl)-2-aza-bicyclo[3.1.0]hex-2-yl]-ethyl}-1H-pyrazolo[3,4-c]pyridine-3-carboxylic acid amide], the half-maximal inhibitory concentration (IC50) was found to be 18 nM. With `NC(=O)c1nn(CC(=O)N2[C@@H]3C[C@@H]3C[C@H]2C(=O)Nc2cccc(Br)n2)c2nnccc12` [Example 3, 1-{2-[(1R,3S,5R)-3-(6-Bromo-pyridin-2-ylcarbamoyl)-2-aza-bicyclo[3.1.0]hex-2-yl]-2-oxo-ethyl}-1H-pyrazolo[3,4-c]pyridazine-3-carboxylic acid amide], the IC50 was 24 nM. On to `NC(=O)c1nn(CC(=O)N2[C@@H]3C[C@@H]3C[C@H]2C(=O)Nc2cccc(Br)n2)c2cnc(C3CC3)cc12` [Example 5, 1-{2-[(1R,3S,5R)-3-(6-Bromo-pyridin-2-ylcarbamoyl)-2-aza-bicyclo[3.1.0]hex-2-yl]-2-oxo-ethyl}-5-cyclopropyl-1H-pyrazolo[3,4-c]pyridine-3-carboxylic acid amide], for which the IC50 was 4 nM. With `CC(=O)c1nn(CC(=O)N2[C@@H]3C[C@@H]3C[C@H]2C(=O)Nc2cccc(OC(F)F)n2)c2ccc(OCc3ncccn3)cc12` [Example 6, (1R,3S,5R)-2-{2-[3-Acetyl-5-(pyrimidin-2-ylmethoxy)-indazol-1-yl]-acetyl}-2-aza-bicyclo[3.1.0]hexane-3-carboxylic acid (6-difluoromethoxy-pyridin-2-yl)-amide] the figure was 38 nM; with `Cc1ncc(NC(=O)[C@@H]2C[C@H]3C[C@H]3N2C(=O)Cn2nc(C(N)=O)c3ccccc32)nc1Br` [Example 7, 1-{2-[(1R,3S,5R)-3-(6-Bromo-5-methyl-pyrazin-2-ylcarbamoyl)-2-aza-bicyclo[3.1.0]hex-2-yl]-2-oxo-ethyl}-1H-indazole-3-carboxylic acid amide], 6 nM; with `Cc1ccc2c(C(N)=O)nn(CC(=O)N3[C@@H]4C[C@@H]4C[C@H]3C(=O)Nc3cccc(Br)n3)c2c1` [Example 8, 1-{2-[(1R,3S,5R)-3-(6-Bromo-pyridin-2-ylcarbamoyl)-2-aza-bicyclo[3.1.0]hex-2-yl]-2-oxo-ethyl}-6-methyl-1H-indazole-3-carboxylic acid amide], 5 nM. On to `NC(=O)c1nn(CC(=O)N2[C@@H]3C[C@@H]3C[C@H]2C(=O)Nc2cncc(C(F)(F)F)n2)c2ccccc12` [Example 9, 1-{2-Oxo-2-[(1R,3S,5R)-3-(6-trifluoromethyl-pyrazin-2-ylcarbamoyl)-2-aza-bicyclo[3.1.0]hex-2-yl]ethyl}-1H-indazole-3-carboxylic acid amide], for which the IC50 is 32 nM. Turning to `NC(=O)c1nn(CC(=O)N2[C@@H]3C[C@@H]3C[C@H]2C(=O)Nc2cccc(Br)n2)c2ccncc12` [Example 10, 1-{2-[(1R,3S,5R)-3-(6-Bromo-pyridin-2-ylcarbamoyl)-2-aza-bicyclo[3.1.0]hex-2-yl]-2-oxo-ethyl}-1H-pyrazolo[4,3-c]pyridine-3-carboxylic acid amide], the IC50 was found to be 9 nM.

`NC(=O)c1nn(CC(=O)N2[C@@H]3C[C@@H]3C[C@H]2C(=O)Nc2cccc(Br)n2)c2cc(F)ccc12` [Example 11, 1-{2-[(1R,3S,5R)-3-(6-Bromo-pyridin-2-ylcarbamoyl)-2-aza-bicyclo[3.1.0]hex-2-yl]-2-oxo-ethyl}-6-fluoro-1H-indazole-3-carboxylic acid amide]: the IC50 turned out to be 5 nM. For the compound `CC(=O)c1nn(CC(=O)N2[C@@H]3C[C@@H]3C[C@H]2C(=O)Nc2cnc(C)c(Br)n2)c2cnccc12` [Example 12, (1R,3S,5R)-2-[2-(3-Acetyl-pyrazolo[3,4-c]pyridin-1-yl)-acetyl]-2-aza-bicyclo[3.1.0]hexane-3-carboxylic acid (6-bromo-5-methyl-pyrazin-2-yl)-amide], the IC50 is 16 nM. Turning to `CC(=O)c1nn(CC(=O)N2C[C@H](F)C[C@H]2C(=O)Nc2cccc(Br)n2)c2cnccc12` [Example 13, (2S,4R)-1-[2-(3-Acetyl-pyrazolo[3,4-c]pyridin-1-yl)-acetyl]-4-fluoro-pyrrolidine-2-carboxylic acid (6-bromo-pyridin-2-yl)-amide], the concentration for half-maximal inhibition (IC50) was found to be 9 nM. With `CC(=O)c1nn(CC(=O)N2[C@@H]3C[C@@H]3C[C@H]2C(=O)Nc2cncc(Br)n2)c2cnccc12` [Example 14, (1R,3S,5R)-2-[2-(3-Acetyl-pyrazolo[3,4-c]pyridin-1-yl)-acetyl]-2-aza-bicyclo[3.1.0]hexane-3-carboxylic acid (6-bromo-pyrazin-2-yl)-amide] the figure was 11 nM. Then `CC(=O)c1nn(CC(=O)N2C[C@H]3C[C@H]3[C@H]2C(=O)Nc2cccc(Br)n2)c2cnccc12` [Example 15, (1R,2S,5S)-3-[2-(3-Acetyl-pyrazolo[3,4-c]pyridin-1-yl)-acetyl]-3-aza-bicyclo[3.1.0]hexane-2-carboxylic acid (6-bromo-pyridin-2-yl)-amide], with 14 nM. With `CC(=O)c1nn(CC(=O)N2[C@@H]3C[C@@H]3C[C@H]2C(=O)Nc2cncc(C(F)(F)F)n2)c2ccccc12` [Example 16, (1R,3S,5R)-2-[2-(3-Acetyl-indazol-1-yl)-acetyl]-2-aza-bicyclo[3.1.0]hexane-3-carboxylic acid (6-trifluoromethyl-pyrazin-2-yl)-amide] the figure was 17 nM. As for `CC(=O)c1nn(CC(=O)N2[C@@H]3C[C@@H]3C[C@H]2C(=O)Nc2cncc(C(F)(F)F)n2)c2cnccc12` [Example 17, (1R,3S,5R)-2-[2-(3-Acetyl-pyrazolo[3,4-c]pyridin-1-yl)-acetyl]-2-aza-bicyclo[3.1.0]hexane-3-carboxylic acid (6-trifluoromethyl-pyrazin-2-yl)-amide], the IC50 was found to be 64 nM.

For the compound `CO[C@H]1[C@@H](C(=O)Nc2cccc(Br)n2)N(C(=O)Cn2nc(C(C)=O)c3ccncc32)C[C@@H]1F` [Example 18, (2S,3S,4S)-1-[2-(3-Acetyl-pyrazolo[3,4-c]pyridin-1-yl)-acetyl]-4-fluoro-3-methoxy-pyrrolidine-2-carboxylic acid (6-bromo-pyridin-2-yl)-amide], the IC50 was determined as 7 nM. For the compound `C[C@@]1(F)C[C@@H](C(=O)Nc2cccc(Br)n2)N(C(=O)Cn2nc(C(N)=O)c3ccccc32)C1` [Example 19, 1-{2-[(2S,4R)-2-(6-Bromo-pyridin-2-ylcarbamoyl)-4-fluoro-4-methyl-pyrrolidin-1-yl]-2-oxo-ethyl}-1H-indazole-3-carboxylic acid amide], the IC50 was 11 nM.

Consider `NC(=O)c1nn(CC(=O)N2[C@@H]3C[C@@H]3C[C@H]2C(=O)Nc2cccc(Cl)n2)c2ccccc12` [Example 20, 1{2-[(1R,3S,5R)-3-(6-Chloro-pyridin-2-ylcarbamoyl)-2-aza-bicyclo[3.1.0]hex-2-yl]-2-oxo-ethyl}-1H-indazole-3-carboxylic acid amide], for which the IC50 turned out to be 4 nM. Regarding `NC(=O)c1nn(CC(=O)N2[C@@H]3C[C@@H]3C[C@H]2C(=O)Nc2cccc(I)n2)c2ccccc12` [Example 21, 1-{2-[(1R,3S,5R)-3-(6-Iodo-pyridin-2-ylcarbamoyl)-2-aza-bicyclo[3.1.0]hex-2-yl]-2-oxo-ethyl}-1H-indazole-3-carboxylic acid amide], the IC50 was 3 nM.

Consider `COc1cc(Br)nc(NC(=O)[C@@H]2C[C@H]3C[C@H]3N2C(=O)Cn2nc(C(N)=O)c3ccccc32)c1` [Example 22, 1-{2-[(1R,3S,5R)-3-(6-Bromo-4-methoxy-pyridin-2-ylcarbamoyl)-2-aza-bicyclo[3.1.0]hex-2-yl]-2-oxo-ethyl}-1H-indazole-3-carboxylic acid amide], for which the IC50 was determined as 5 nM. With `NC(=O)c1nn(CC(=O)N2C[C@H](F)[C@H](F)[C@H]2C(=O)Nc2cccc(Br)n2)c2ccccc12` [Example 23, 1-{2-[(2R,3R,4S)-2-(6-Bromo-pyridin-2-ylcarbamoyl)-3,4-difluoro-pyrrolidin-1-yl]-2-oxo-ethyl}-1H-indazole-3-carboxylic acid amide] the figure was 8 nM. Consider `NC(=O)c1nn(CC(=O)N2C[C@H](F)C[C@H]2C(=O)Nc2cccc(Br)n2)c2cnc(CF)cc12` [Example 24, 1-(2-((2S,4R)-2-(6-bromopyridin-2-ylcarbamoyl)-4-fluoropyrrolidin-1-yl)-2-oxoethyl)-5-(fluoromethyl)-1H-pyrazolo[3,4-c]pyridine-3-carboxamide], for which the IC50 turned out to be 7 nM. For the compound `NC(=O)c1nn(CC(=O)N2CCS[C@H]2C(=O)Nc2cccc(Br)n2)c2ccccc12` [Example 25, (S)-N-(6-bromopyridin-2-yl)-3-(2-(3-carbamoyl-1H-indazol-1-yl)acetyl)thiazolidine-2-carboxamide], the IC50 worked out at 10 nM. In the case of `CNC(=O)c1nn(CC(=O)N2[C@@H]3C[C@@H]3C[C@H]2C(=O)Nc2cccc(Br)n2)c2ccccc12` [Example 26, 1-(2-((1R,3S,5R)-3-((6-bromopyridin-2-yl)carbamoyl)-2-azabicyclo[3.1.0]hexan-2-yl)-2-oxoethyl)-N-methyl-1H-indazole-3-carboxamide], the IC50 turned out to be 40 nM.

Turning to `NC(=O)c1nn(CC(=O)N2CC[C@H](F)[C@H]2C(=O)Nc2cccc(Br)n2)c2ccccc12` [Example 27, 1-(2-((2R,3S)-2-((6-bromopyridin-2-yl)carbamoyl)-3-fluoropyrrolidin-1-yl)-2-oxoethyl)-1H-indazole-3-carboxamide], the IC50 came out at 80 nM.
